# Test results taken from BindingDB's records for doi:10.1021/jm970377o (Abbott Laboratories, 1998).
# Assay: Compound was evaluated for functional potency and efficacy at human muscle type Nicotinic acetylcholine receptor in TE671 cells
compound,measurement,value
"CC(=O)C1=CC[N+](C)(C)CC1 [4-Acetyl-1,1-dimethyl-1,2,3,6-tetrahydro-pyridinium; iodide]",EC50,100 nM
